Data reported in patent publication US5736533A, “Bacterial inhibition with an oligosaccharide compound” (Neose Technologies, Inc., priority 1995, dated 1998).
“And” between values parts separate entries of the source, which are not always exact repeats. Equal values may be shown once. Read-outs that look alike come from different tables or passages of the source.

Key:
S. pneumoniae = test: inhibition of adherence of S. pneumoniae to respiratory epithelial cells; type: cell-based; conditions: Streptococcus pneumoniae
[1] = tested on: H. influenzae (strain 46519); test: inhibition of adherence of H. influenzae (strain 46519) to epithelial cells; type: cell-based; conditions: Haemophilus influenzae, Epithelial cell, read-out: IC50 [mean (SD)]
Description: (§1) A method similar to that of Rostand, K. and Esko, (1993) J. Biol. Chem. 268 pp 24053-3, which studied the binding of radiolabelled P. aeruginosa to CHO cells was used to test for the binding inhibition of oligosaccharide compounds. For the studies described herein, S. pneumoniae (strains R-6, P70, and other clinical respiratory isolates) were labelled by culture in lysine-deficient tryptic soy broth containing ^3 H-lysine. The tryptic soy broth was made deficient in lysine by pre-treating it with lysine decarboxylase from E. coli. The bacteria were cultured for 4-5 hours, at which point the culture was in exponential growth. The bacteria were harvested and washed in Leibovitz L-15 Medium supplemented with 0.2% low-endotoxin bovine serum albumin. The bacteria were diluted to approximately 3×10^8 /mL, and then mixed 1:1 with either L-15-BSA or with various compounds to be tested. The bacterial mixtures were incubated at room temperature, with gentle agitation on an orbital shaker. After 10-15 min, samples of the bacterial mixtures were transferred to the surface of a confluent monolayer of cultured epithelial cells in a 96-well polystyrene plate. The cells most commonly used were the Wong-Kilbourne derivative of Chang conjunctiva. The human nasopharyngeal cell line Detroit 562, and the human lung cell line A549 were also used. The bacteria were incubated with the cells for 30 min with gentle agitation, at room temperature. The unbound bacteria were washed away with PBS containing 0.2% bovine serum albumin. Scintillant solution was added to the wells, and the plate was put in a microplate scintillation counter for quantitation of bound bacteria.
(§2) Adhesion of H. influenzae to epithelial cells was performed with the same protocol with the following modifications: The bacteria were cultured overnight in lysine-deficient Haemophilus test media. The bacteria were incubated with the cells at a concentration near 10^7 /mL for 60 min.
(§3) Using the testing protocol described in Example 2, four strains of bacteria were tested for binding inhibition by different oligosaccharide compounds.

[2] = tested on: H. influenzae (strain 39689); test: inhibition of adherence of H. influenzae (strain 39689) to epithelial cells; type: cell-based; conditions: Haemophilus influenzae, Epithelial cell, read-out: IC50 [mean (SD)]
Description: as §1, §2, §3

[3] = tested on: Pseudomonas aeruginosa M35; conditions: Rosenstein et al (1992); isolate from cystic fibrosis patients; cited from earlier work
[4] = tested on: Burkholderia (Pseudomonas) cepacia; test: inhibition of adherence of Burkholderia (Pseudomonas) cepacia to respiratory epithelial cells; type: cell-based
Description: as §1, §3

S. pneumoniae strain AII [5] = test: colonization of rabbit lungs with S. pneumoniae in the presence of an adherence-inhibitory oligosaccharide; type: in vivo, New Zealand white rabbits; conditions: 100 μM
Description: Rabbits S. pneumoniae strain AII were mixed with oligosacchardies and administered to New Zealand white rabbits by tracheal instillation, and lung lavage colonies were counted at the indicated time by the method described in Saukkonen, et al., 1991, J. Exp. Med. 173:1143-9.

S. pneumoniae strain AII [6] = test: treatment of rabbits pre-colonized with S. pneumoniae with adherence-reversing oligosaccharide; type: in vivo, New Zealand white rabbits
Experimental: S. pneumonaie strain AII were administered to New Zealand white rabbits by tracheal instillation. All rabbits were sick at 24 h, with indications of pneumonia. After 24 h oligosaccharide (LNnT) or control (saline) was administered intratracheally. After an additional 24 h lung lavage colonies were counted as described in Example 3.

Escherichia coli C600 = conditions: Rosenstein et al (1992); cited from earlier work
[7] = tested on: immunoglobulin E-binding protein; conditions: Feizi et al Biochemistry 1994; cited from earlier work
Pseudomonas aeruginosa = conditions: Ramphal et al (1991); cited from earlier work
Escherichia coli = conditions: Ginsburg et al U.S. Pat. No. 5,225,330; cited from earlier work
Streptococcus pneumoniae = conditions: Andersson et al J. Exp. Med. (1983); cited from earlier work
Mycoplasma pneumoniae = conditions: Ginsburg et al U.S. Pat. No. 5,225,330, Table I; cited from earlier work
[8] = A549, read-out: IC50 [mean (SD)], Monovalent, A549 human lung carcinoma, activated with IL1
[9] = Epithelial cell, read-out: IC50 [mean (SD)], Monovalent, Chang human conjunctival carcinoma
[10] = HUVEC, read-out: IC50 [mean (SD)], Monovalent, HUVEC activated with TNFα or thrombin
[11] = Calu-3, read-out: IC50 [mean (SD)], Monovalent, CaLu-3 human lung carcinoma
[12] = Epithelial cell, read-out: IC50 [mean (SD)], Monovalent, Det-562 human nasopharyngeal carcinoma
[13] = Burkholderia, Calu 3 cells, read-out: IC50 [mean (SD)]
[14] = experiment 1, inoculum 5 × 10^5 bacteria, intratracheal, 4 day lavage
[15] = experiment 2, inoculum 5 × 10^5 bacteria, intratracheal, 4 day lavage
[16] = experiment 3, inoculum 5 × 10^7 bacteria, 24 h lavage

Question: Which results are given for `CC(=O)N[C@H]1[C@H](O[C@H]2[C@@H](O)[C@@H](CO)O[C@@H](O[C@H]3[C@H](O)[C@@H](O)C(O)O[C@@H]3CO)[C@@H]2O)O[C@H](CO)[C@H](O)[C@@H]1O` (stereo partly drawn) [Ga1NAc β1-3 Ga1β1-4 Glc, GalNAcβ1-3-Galβ1-4-Glc]?
Answer: IC50 (S. pneumoniae; [8]): 85 µM; IC50 (S. pneumoniae; [9]): > 6000 µM; IC50 (S. pneumoniae; [10]): 70 µM; IC50 [1]: 4200 µM; IC50 [2]: 10600 µM

Question: What does the source list for `CC(=O)N[C@H]1[C@H](O[C@H]2[C@@H](O)[C@@H](CO)O[C@@H](O[C@H]3[C@H](O)[C@@H](O)C(O)O[C@@H]3CO)[C@@H]2O)O[C@H](CO)[C@@H](O[C@@H]2O[C@H](CO)[C@H](O)[C@H](O[C@@H]3O[C@H](CO)[C@H](O)[C@H](O)[C@H]3NC(C)=O)[C@H]2O)[C@@H]1O` (stereo partly drawn) [Ga1NAc β1-3 LNnT, GalNAcβ1-3-Galβ1-4-GlcNAcβ1-3-Galβ1-4-Glc]?
Answer: IC50 (S. pneumoniae; [8]): 80 µM; IC50 (S. pneumoniae; [10]): 75 µM; IC50 [1]: 7800 µM; IC50 [2]: > 10000 µM

Question: Which binding activity [3] does the source give for `CC(=O)N[C@H]1[C@H](O[C@H]2[C@@H](O)[C@@H](CO)O[C@@H](O[C@H]3[C@H](O)[C@@H](O)C(O)O[C@@H]3CO)[C@@H]2O)O[C@H](CO)[C@@H](O[C@@H]2O[C@H](CO)[C@H](O)[C@H](O)[C@H]2O)[C@@H]1O` (stereo partly drawn) [LNnT, Galβ1-4-GlcNAcβ1-3-Galβ1-4-Glc] here?
Answer: high binding activity

Question: What about the IC50 (S. pneumoniae; [8]) of the same molecule?
Answer: 95 µM

Question: What about the IC50 (S. pneumoniae; [11]) of the same molecule?
Answer: > 16000 µM

Question: And the IC50 (S. pneumoniae; [9])?
Answer: 8000 µM

Question: What about the IC50 (S. pneumoniae; [12]) of the same molecule?
Answer: 7000 µM

Question: What about the IC50 (S. pneumoniae; [10]) of the same molecule?
Answer: 52 µM

Question: And the IC50 [1]?
Answer: > 14000 µM

Question: What about the IC50 [4, 13] of the same molecule?
Answer: 5600 µM

Question: And the “CFU (lung lavage)” value (S. pneumoniae strain AII [5]; experiment 1, inoculum 5 × 10^5 bacteria, intratracheal, 24 h lavage, 2 rabbits/group, one value per rabbit)?
Answer: 8.7 × 10^2 CFU (colonies/ml lavage fluid) and 4.7 × 10^3 CFU (colonies/ml lavage fluid)

Question: And the “CFU (lung lavage)” value (S. pneumoniae strain AII [5]; [14])?
Answer: < 10 CFU (colonies/ml lavage fluid)

Question: What about the “CFU (lung lavage)” value (S. pneumoniae strain AII [5]; [15]) of the same molecule?
Answer: 0 CFU (colonies/ml lavage fluid)

Question: What about the “CFU (lung lavage)” value (S. pneumoniae strain AII [5]; [16]) of the same molecule?
Answer: 0 CFU (colonies/ml lavage fluid)

Question: What about the “CFU (lung lavage)” value (S. pneumoniae strain AII [5]; experiment 4, inoculum 10^5 bacteria, intratracheal, 24 h lavage) of the same molecule?
Answer: 1.1 × 10^3 CFU (colonies/ml lavage fluid) and 1.4 × 10^3 CFU (colonies/ml lavage fluid)

Question: And the “condition of treated rabbits” value (S. pneumoniae strain AII [6]; at 48 h)?
Answer: healthy

Question: And the “CFU (lung lavage)” value (S. pneumoniae strain AII [6]; inoculum 10^5 bacteria, 100 μM intratracheal, lavage 24 h after oligosaccharide treatment and 48 h after bacterial instillation)?
Answer: 0 CFU

Question: What about the IC50 [2] of the same molecule?
Answer: > 14000 µM

Question: And the binding activity (Escherichia coli C600)?
Answer: high binding activity

Question: Which binding activity [3] does the source give for `CC(=O)N[C@H]1[C@H](O[C@H]2[C@@H](O)[C@@H](CO)O[C@@H](O[C@H]3[C@H](O)[C@@H](O)C(O)O[C@@H]3CO)[C@@H]2O)O[C@H](CO)[C@@H](O[C@@H]2O[C@H](CO[C@]3(C(=O)O)C[C@H](O)[C@@H](NC(C)=O)[C@H]([C@H](O)[C@H](O)CO)O3)[C@H](O)[C@H](O)[C@H]2O)[C@@H]1O` (stereo partly drawn) [LSTc, NeuAcα2-6-Galβ1-4-GlcNAcβ1-3-Galβ1-4-Glc] here?
Answer: no activity

Question: What about the “binding by immunoglobulin E-binding protein” value [7] of the same molecule?
Answer: not bound or is only negligibly bound

Question: And the “activity in the direct adhesion assay” value (Pseudomonas aeruginosa)?
Answer: no activity

Question: What about the IC50 (S. pneumoniae; A549, first table, A549 lung carcinoma, activated with IL1) of the same molecule?
Answer: 100 µM

Question: What about the IC50 (S. pneumoniae; [8]) of the same molecule?
Answer: 69 µM

Question: What about the IC50 (S. pneumoniae; Calu-3, first table, CaLu-3 lung carcinoma) of the same molecule?
Answer: 4400 µM

Question: And the IC50 (S. pneumoniae; [11])?
Answer: 4400 µM

Question: And the IC50 (S. pneumoniae; Epithelial cell, first table, 1° lung: rat tracheal primary epithelium)?
Answer: 400 µM

Question: And the IC50 (S. pneumoniae; Epithelial cell, first table, CHANG cells)?
Answer: 1500 µM

Question: And the IC50 (S. pneumoniae; Epithelial cell, first table, Det-562 nasopharyngeal carcinoma)?
Answer: 5400 µM

Question: And the IC50 (S. pneumoniae; Epithelial cell, read-out: IC50 [mean (SD)], Monovalent, 1° lung: rat trachea epithelial monolayer (primary))?
Answer: 250 µM

Question: What about the IC50 (S. pneumoniae; [9]) of the same molecule?
Answer: 1400 µM

Question: What about the IC50 (S. pneumoniae; [12]) of the same molecule?
Answer: 4000 µM

Question: And the IC50 (S. pneumoniae; FaDu, first table, FaDu nasopharyngeal carcinoma)?
Answer: 4000 µM

Question: What about the IC50 (S. pneumoniae; FaDu, read-out: IC50 [mean (SD)], Monovalent, FaDu human nasopharyngeal carcinoma) of the same molecule?
Answer: 4500 µM

Question: And the IC50 (S. pneumoniae; HUVEC, first table, HUVEC activated with TNFα or thrombin)?
Answer: 100 µM

Question: What about the IC50 (S. pneumoniae; [10]) of the same molecule?
Answer: 69 µM

Question: What about the IC50 [4, 13] of the same molecule?
Answer: 1000 µM

Question: What about the IC50 ([4]; first table (P. cepacia), CaLu-3 lung carcinoma, read-out: IC50) of the same molecule?
Answer: 1000 µM

Question: And the “CFU (lung lavage)” value (S. pneumoniae strain AII [5]; [14])?
Answer: < 10 CFU (colonies/ml lavage fluid)

Question: And the “CFU (lung lavage)” value (S. pneumoniae strain AII [5]; [15])?
Answer: 0 CFU (colonies/ml lavage fluid)

Question: What about the “CFU (lung lavage)” value (S. pneumoniae strain AII [5]; [16]) of the same molecule?
Answer: 0 CFU (colonies/ml lavage fluid)

Question: And the IC50 [2]?
Answer: > 10000 µM

Question: And the binding activity (Escherichia coli C600)?
Answer: no activity

Question: Which IC50 (S. pneumoniae; [8]) does the source give for `CC(=O)N[C@H]1[C@H](O[C@H]2[C@@H](O)[C@@H](CO)O[C@@H](O[C@H]3[C@H](O)[C@@H](O)C(O)O[C@@H]3CO)[C@@H]2O)O[C@H](CO)[C@@H](O[C@@H]2O[C@H](CO)[C@H](O)[C@H](O[C@]3(C(=O)O)C[C@H](O)[C@@H](NC(C)=O)[C@H]([C@H](O)[C@H](O)CO)O3)[C@H]2O)[C@@H]1O` (stereo partly drawn) [LSTd, NeuAcα2-3-Galβ1-4-GlcNAcβ1-3-Galβ1-4-Glc] here?
Answer: 95 µM

Question: What about the IC50 (S. pneumoniae; [9]) of the same molecule?
Answer: 600 µM

Question: What about the IC50 (S. pneumoniae; [10]) of the same molecule?
Answer: 90 µM

Question: For `CC(=O)N[C@H]1[C@H](O[C@H]2[C@@H](O)[C@@H](CO)O[C@@H](O[C@H]3[C@H](O)[C@@H](O)C(O)O[C@@H]3CO)[C@@H]2O)O[C@H](CO)[C@@H](O)[C@@H]1O[C@@H]1O[C@H](CO)[C@H](O)[C@H](O[C@]2(C(=O)O)C[C@H](O)[C@@H](NC(C)=O)[C@H]([C@H](O)[C@H](O)CO)O2)[C@H]1O` (stereo partly drawn) [NeuAcα2-3-Galβ1-3-GlcNAcβ1-3-Galβ1-4-Glc, reference compound], which “binding by immunoglobulin E-binding protein” value [7] is on record?
Answer: strongly bound

Question: Which inhibition (Escherichia coli) does the source give for N-glycolylsialoparagloboside here?
Answer: inhibition

Question: For “NeuAcα2-3Galβ1-4-GlcNAcβ1-3-Galβ1-4-Glc--Cer [compound 3]”, which binding inhibition (Streptococcus pneumoniae) is on record?
Answer: no effect

Question: With sialylparagoboside as the molecule, how does the binding inhibition (Mycoplasma pneumoniae) read?
Answer: no activity
